Target: T1, human GCS (glucosylceramide synthase) (Homo sapiens, UniProt Q16739)
T1 construct: made in house; host or cells: Expi293F cells (transient expression; microsome fraction)
T1 sequence (Q16739 1-394): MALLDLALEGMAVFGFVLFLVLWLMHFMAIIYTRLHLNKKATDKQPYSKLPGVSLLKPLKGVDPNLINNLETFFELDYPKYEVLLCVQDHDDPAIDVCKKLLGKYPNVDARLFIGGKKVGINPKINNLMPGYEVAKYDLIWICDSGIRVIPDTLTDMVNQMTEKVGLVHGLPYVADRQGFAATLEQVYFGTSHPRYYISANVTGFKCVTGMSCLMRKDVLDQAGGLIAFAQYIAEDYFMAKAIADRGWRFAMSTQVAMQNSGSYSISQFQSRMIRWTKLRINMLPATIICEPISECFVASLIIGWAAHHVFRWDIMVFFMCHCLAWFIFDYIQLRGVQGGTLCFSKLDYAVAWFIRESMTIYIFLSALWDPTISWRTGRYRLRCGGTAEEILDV
Assay: Glucosylceramide Synthase (GCS) Assay
Assay type: biochemical
Settings: test compound 10 μM; microsome fraction of Expi293F cells expressing human GCS; 1.7 μM UDP-glucose, 3 μM C8 ceramide; room temperature 60 min; C8 glucosylceramide by Rapidfire MS/MS; read-out: GCS enzyme inhibitory rate at 10 μM (%)
In short: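 Test compounds were run at a final 10 μM against liposomal C8 ceramide (3 μM) and UDP-glucose at its Km (1.7 μM). Human GCS came as microsomes from transfected Expi293F cells, incubated 60 min at room temperature, pH 7.5. Product measured by RapidFire MS/MS; 0% and 100% inhibition were DMSO and no-enzyme wells.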

SMILES | inhibition at 10 µM [%]
Cc1cc(C(=O)Nc2ccc(C(O)(C(F)F)C(F)F)cc2)c(=O)n(-c2ccccc2OCC(F)F)n1 [Example 152, 2-[2-(2,2-difluoroethoxy)phenyl]-6-methyl-3-oxo-N-[4-(1,1,3,3-tetrafluoro-2-hydroxypropan-2-yl)phenyl]-2,3-dihydropyridazine-4-carboxamide] | 100
O=C(Nc1ccc(C(O)(C(F)F)C(F)F)cc1)c1ccnn(-c2ccccc2OCC(F)F)c1=O [Example 153, 2-[2-(2,2-difluoroethoxy)phenyl]-3-oxo-N-[4-(1,1,3,3-tetrafluoro-2-hydroxypropan-2-yl)phenyl]-2,3-dihydropyridazine-4-carboxamide] | 100
Cc1cc(C(=O)Nc2ccc(C(C)(C)O)cc2C#N)c(=O)n(-c2ccccc2OCC(F)F)n1 [Example 154, N-[2-cyano-4-(2-hydroxypropan-2-yl)phenyl]-2-[2-(2,2-difluoroethoxy)phenyl]-6-methyl-3-oxo-2,3-dihydropyridazine-4-carboxamide] | 83
O=C(Nc1ccc(C(O)(C(F)F)C(F)F)cc1)c1ccnn(-c2ccccc2OCC(F)(F)F)c1=O [Example 155, 3-oxo-N-[4-(1,1,3,3-tetrafluoro-2-hydroxypropan-2-yl)phenyl]-2-[2-(2,2,2-trifluoroethoxy)phenyl]-2,3-dihydropyridazine-4-carboxamide] | 100
Cc1cc(C(=O)Nc2ccc(C(O)(C(F)F)C(F)F)cc2F)c(=O)n(-c2ccccc2OCC(F)F)n1 [Example 156, 2-[2-(2,2-difluoroethoxy)phenyl)-N-[2-fluoro-4-(1,1,3,3-tetrafluoro-2-hydroxypropan-2-yl)phenyl]-6-methyl-3-oxo-2,3-dihydropyridazine-4-carboxamide] | 100
O=C(Nc1ccc(C(O)(C(F)F)C(F)F)cc1F)c1ccnn(-c2ccccc2OCC(F)F)c1=O [Example 157, 2-[2-(2,2-difluoroethoxy)phenyl]-N-[2-fluoro-4-(1,1,3,3-tetrafluoro-2-hydroxypropan-2-yl)phenyl]-3-oxo-2,3-dihydropyridazine-4-carboxamide] | 100
Cn1cc(C(=O)Nc2ccc(C(C)(C)O)cc2)c(=O)c(-c2ccccc2OCC(F)F)n1 [Example 158, 6-[2-(2,2-difluoroethoxy)phenyl]-N-[4-(2-hydroxypropan-2-yl)phenyl]-2-methyl-5-oxo-2,5-dihydropyridazine-4-carboxamide] | 100
Cn1cc(C(=O)Nc2ccc(C(O)(C(F)F)C(F)F)cc2)c(=O)c(-c2ccccc2OCC(F)F)n1 [Example 159, 6-[2-(2,2-difluoroethoxy)phenyl]-2-methyl-5-oxo-N-[4-(1,1,3,3-tetrafluoro-2-hydroxypropan-2-yl)phenyl]-2,5-dihydropyridazine-4-carboxamide] | 100
O=C(Nc1ccc(C(O)(C(F)F)C(F)F)cc1Cl)c1ccnn(-c2ccccc2OCC(F)F)c1=O [Example 160, N-[2-chloro-4-(1,1,3,3-tetrafluoro-2-hydroxypropan-2-yl)phenyl]-2-[2-(2,2-difluoroethoxy)phenyl]-3-oxo-2,3-dihydropyridazine-4-carboxamide] | 100
CC(C)(O)c1ccc(NC(=O)c2cn(C(F)F)nc(-c3ccccc3OCC(F)F)c2=O)cc1 [Example 161, 6-[2-(2,2-difluoroethoxy)phenyl]-2-(difluoromethyl)-N-[4-(2-hydroxypropan-2-yl)phenyl]-5-oxo-2,5-dihydropyridazine-4-carboxamide] | 100
O=C(Nc1ccc(C(O)(C(F)F)C(F)F)nc1)c1ccnn(-c2ccccc2OCC(F)(F)F)c1=O [Example 162, 3-oxo-N-[6-(1,1,3,3-tetrafluoro-2-hydroxypropan-2-yl)pyridin-3-yl]-2-[2-(2,2,2-trifluoroethoxy)phenyl]-2,3-dihydropyridazine-4-carboxamide] | 100
